# Source: ChEMBL document CHEMBL3351381, “Synthesis, structure-activity relationship studies, and antibacterial evaluation of 4-chromanones and chalcones, as well as olympicin A and derivatives” (J Med Chem, 2014)
# How the values were obtained:
# Format in all cases: functional
# Enterococcus faecalis = test: Antimicrobial activity against Enterococcus faecalis ATCC 33186 by microbroth dilution method
# [1] = tested on: Mycobacterium tuberculosis; test: Antimicrobial activity against Mycobacterium tuberculosis H37Rv by microbroth dilution method
# Escherichia coli [2] = test: Antimicrobial activity against Escherichia coli K-12 by microbroth dilution method
# Staphylococcus aureus [3] = test: Antimicrobial activity against methicillin-sensitive Staphylococcus aureus ATCC 29213 by microbroth dilution method
# Pseudomonas aeruginosa = test: Antimicrobial activity against Pseudomonas aeruginosa PAO1 at >200 ug/ml by microbroth dilution method
# Escherichia coli [4] = test: Antimicrobial activity against tolC-deficient Escherichia coli by microbroth dilution method
# Klebsiella pneumoniae = test: Antimicrobial activity against Klebsiella pneumoniae ATCC 33495 at >200 ug/ml by microbroth dilution method
# Staphylococcus aureus [5] = test: Antimicrobial activity against methicillin-resistant Staphylococcus aureus NRS 70 by microbroth dilution method
SMILES,MIC (Enterococcus faecalis) [mg/L],MIC [1] [mg/L],MIC (Escherichia coli [2]) [mg/L],MIC (Staphylococcus aureus [3]) [mg/L],MIC (Pseudomonas aeruginosa) [mg/L],MIC (Escherichia coli [4]) [mg/L],MIC (Klebsiella pneumoniae) [mg/L],MIC (Staphylococcus aureus [5]) [mg/L]
O=C1CC2(CCCC2)Oc2cc(O)ccc21,> 200,200,> 200,> 200,> 200,100,> 200,> 200
O=C1CC(C2CCCC2)Oc2cc(O)cc(O)c21 (stereo not given),50,200,> 200,100,> 200,6.25,> 200,50
C=CCOc1cc(O)cc(O)c1C(=O)[C@@H](C)CC,12.5,–,–,12.5,> 200,3.13,> 200,12.5
C=CCOc1cc(O)cc(O)c1C(=O)C(C)CC (racemic),–,100,> 200,–,> 200,3.13,> 200,6.25
O=C1CC2(CCCCC2)Oc2cc(O)ccc21,> 200,100,> 200,200,> 200,50,> 200,200
C=CCOc1ccc(/C=C/C(=O)c2ccc(O)cc2O)cc1,100,50,> 200,25,> 200,> 200,> 200,> 200
CCCC1C/C(=N\O)c2c(O)cc(O)cc2O1 (stereo not given),100,100,> 200,100,> 200,25,> 200,50
CCC(C)C(=O)c1c(O)cc(O)cc1OC/C=C(\C)CCC=C(C)C (racemic),–,200,–,–,> 200,> 200,> 200,3.13
CCCCCCOc1cc(O)cc(O)c1C(=O)C(C)CC (racemic),1.56,100,> 200,1.56,> 200,3.13,> 200,1.56
O=C1CC(c2ccc(N3CCCCC3)cc2)Oc2cc(O)ccc21 (stereo not given),200,> 200,> 200,> 200,> 200,12.5,> 200,> 200
CCCCCCCCOc1ccccc1/C=C/C(=O)c1ccc(O)cc1O,1.56,> 200,> 200,25,> 200,> 200,> 200,6.25
CCCCCCC1CC(=O)c2c(OCOC)cc(OCOC)cc2O1 (stereo not given),> 200,50,> 200,> 200,> 200,6.25,> 200,> 200
CC1(C)C2CC=C(C3CC(=O)c4c(O)cc(O)cc4O3)C1C2 (stereo not given),12.5,200,> 200,12.5,> 200,3.13,> 200,6.25
C=CCOc1cccc(/C=C/C(=O)c2ccc(O)cc2O)c1,> 200,50,> 200,6.25,> 200,3.13,> 200,12.5
C=CCOc1ccccc1/C=C/C(=O)c1ccc(O)cc1,100,200,> 200,12.5,> 200,6.25,> 200,6.25
CCCC1CC(=O)c2c(O)cc(O)cc2O1 (stereo not given),200,200,> 200,100,> 200,50,> 200,100
CCCCCCCCCC1CC(=O)c2ccc(O)cc2O1 (stereo not given),200,> 200,> 200,> 200,> 200,> 200,> 200,> 200
CC(C)=CCCC(C)CC1CC(=O)c2c(O)cccc2O1 (stereo not given),> 200,> 200,> 200,> 200,> 200,> 200,> 200,> 200
CCCC1CC(=O)c2c(OCOC)cc(OCOC)cc2O1 (stereo not given),> 200,100,> 200,> 200,> 200,100,> 200,> 200
CCCC1CC(O)c2ccc(O)cc2O1 (stereo not given),100,12.5,> 200,50,> 200,50,> 200,50
O=C1CC2(CCCCCC2)Oc2cc(O)ccc21,200,100,> 200,50,> 200,12.5,> 200,50

SMILES,MIC (Enterococcus faecalis) [mg/L],MIC [1] [mg/L],MIC (Escherichia coli [2]) [mg/L],MIC (Staphylococcus aureus [3]) [mg/L],MIC (Pseudomonas aeruginosa) [mg/L],MIC (Escherichia coli [4]) [mg/L],MIC (Klebsiella pneumoniae) [mg/L],MIC (Staphylococcus aureus [5]) [mg/L]
CC1(C)S[C@@H]2[C@H](NC(=O)[C@H](N)c3ccccc3)C(=O)N2[C@H]1C(=O)O [AMPICILLIN],0.78,–,3.13,1.56,> 200,1.56,> 200,12.5
CCCCCCCCCC1CC(O)c2ccc(O)cc2O1 (stereo not given),50,> 200,> 200,20,> 200,12.5,> 200,25
O=C1CC(CCc2ccccc2)Oc2cc(O)ccc21 (stereo not given),> 200,100,> 200,50,> 200,12.5,> 200,50
CCCCCCC1CC(=O)c2c(O)cc(O)cc2O1 (stereo not given),100,50,> 200,–,> 200,3.13,> 200,6.25
CCCCCCC1CC(=O)c2ccc(O)cc2O1 (stereo not given),> 200,50,> 200,> 200,> 200,3.13,> 200,> 200
C=CCOc1ccccc1/C=C/C(=O)c1c(O)cc(O)cc1O,50,> 200,> 200,> 200,> 200,12.5,> 200,25
NC[C@H]1O[C@H](O[C@H]2[C@H](O)[C@@H](O[C@H]3O[C@H](CO)[C@@H](O)[C@H](N)[C@H]3O)[C@H](N)C[C@@H]2N)[C@H](O)[C@@H](O)[C@@H]1O [KANAMYCIN],25,–,3.13,1.56,> 200,< 0.2,> 200,50
C=CCOc1ccccc1C1CC(=O)c2ccc(O)cc2O1 (stereo not given),50,100,> 200,25,> 200,12.5,> 200,25
CCCC1CC(=O)c2ccc(O)cc2O1 (stereo not given),> 200,200,> 200,200,> 200,50,> 200,> 200
COCOc1ccc2c(c1)OC(C1=CCC3CC1C3(C)C)CC2=O (stereo not given),> 200,100,> 200,> 200,> 200,6.25,> 200,> 200
CC1(C)C2CC=C(/C=C/C(=O)c3c(O)cc(O)cc3O)C1C2 (stereo not given),25,> 200,> 200,> 200,> 200,6.25,> 200,200
CCCCCCCCCC1CC(=O)c2c(OCOC)cc(OCOC)cc2O1 (stereo not given),> 200,100,> 200,> 200,> 200,> 200,> 200,> 200
CCCCCCCC1CC(=O)c2ccc(O)cc2O1 (stereo not given),> 200,50,> 200,> 200,> 200,1.56,> 200,> 200
O=C(N[C@H](CO)[C@H](O)c1ccc([N+](=O)[O-])cc1)C(Cl)Cl [CHLORAMPHENICOL],0.78,–,3.13,3.13,> 200,0.39,> 200,1.56
CCCCCCCC1CC(=O)c2c(OCOC)cc(OCOC)cc2O1 (stereo not given),> 200,50,> 200,> 200,> 200,12.5,> 200,> 200
CC(C)=CCCC(C)CC1CC(=O)c2cc(O)ccc2O1 (stereo not given),6.25,200,> 200,6.25,> 200,3.13,> 200,12.5
COCOc1cc(OCOC)c2c(c1)OC(CC(C)CCC=C(C)C)CC2=O (stereo not given),> 200,> 200,> 200,> 200,> 200,> 200,> 200,> 200
NNC(=O)c1ccncc1 [ISONIAZID],–,0.03,–,–,–,–,–,–
CCCCCCC1C/C(=N\O)c2c(O)cc(O)cc2O1 (stereo not given),12.5,100,> 200,6.25,> 200,3.13,> 200,6.25
CCCCCCCC1CC(O)c2ccc(O)cc2O1 (stereo not given),25,25,> 200,12.5,> 200,6.25,> 200,12.5
